Each structure is given as a SMILES string. Where only a bound is given, the exact number is not on record here.

In this assay the target is T1, human MRGPRX2 (Homo sapiens, UniProt Q96LB1).
T1 sequence (Q96LB1 1-330): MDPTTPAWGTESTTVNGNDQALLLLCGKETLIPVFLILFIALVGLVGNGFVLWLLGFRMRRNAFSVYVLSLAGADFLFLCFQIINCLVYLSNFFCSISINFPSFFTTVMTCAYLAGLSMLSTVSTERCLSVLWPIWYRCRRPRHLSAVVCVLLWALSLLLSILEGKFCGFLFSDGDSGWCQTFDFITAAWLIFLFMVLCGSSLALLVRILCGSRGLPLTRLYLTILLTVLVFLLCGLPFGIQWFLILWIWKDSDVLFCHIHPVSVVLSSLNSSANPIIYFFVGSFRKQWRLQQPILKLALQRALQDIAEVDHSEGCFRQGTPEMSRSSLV
In words: Ca2+ mobilization assay (FLIPR TETRA): inhibition of Cortistatin-14 mediated MRGPRX2 activation. In general terms: Calcium assays in cells follow changes in intracellular calcium, usually with a dye or a luminescent sensor.

The IC50 is the midpoint of a concentration-inhibition curve. Low readings indicate higher potency, high ones lower potency. `C[C@@H](C(=O)Nc1cnc(Oc2c(F)cccc2F)cn1)N1CCC(F)(F)[C@@H](c2cc[n+]([O-])cc2)C1` [Example 121, 4-((S)-1-((S)-1-((5-(2,6-difluorophenoxy)pyrazin-2-yl)amino)-1-oxopropan-2-yl)-4,4-difluoropiperidin-3-yl)pyridine 1-oxide]: the IC50 was at most 10 nM.
`CC(C(=O)Nc1ccc(OCC2CCC2)cn1)N1CCC(F)(F)[C@@H](c2ccc(=O)[nH]c2)C1` (stereo partly drawn) [Example 30, N-(5-(cyclobutyl-methoxy)pyridin-2-yl)-2-((S)-4,4-difluoro-3-(6-oxo-1,6-dihydropyridin-3-yl)piperidin-1-yl)propanamide] yielded an IC50 of 100 to 3160 nM.
On to `CNCc1cc(C2CN(C(C)C(=O)Nc3ccc(Oc4ccc(F)cc4)cn3)CCC2(F)F)c[nH]c1=O` (stereo not shown) [Example 237, 2-(4,4-difluoro-3-(5-((methylamino)methyl)-6-oxo-1,6-dihydropyridin-3-yl)piperidin-1-yl)-N-(5-(4-fluorophenoxy)pyridin-2-yl)propanamide], for which the IC50 was at most 10 nM.
Same read-out and setting: the value for `C[C@@H](C(=O)Nc1ccc(OCC2CC2)cn1)[C@H]1CCC(F)(F)[C@@H](c2ccc(=O)[nH]c2)C1` (single isomer, unassigned) [Example 275] was at most 10 nM; that for `CC(C(=O)Nc1ccc(Oc2ccccc2C#N)nn1)N1CCC(F)(F)[C@@H](c2ccc(=O)[nH]c2)C1` (stereo partly drawn) [Example 62, N-(6-(2-cyanophenoxy)pyridazin-3-yl)-2-((S)-4,4-difluoro-3-(6-oxo-1,6-dihydropyridin-3-yl)piperidin-1-yl)propanamide] was 3160 to 31600 nM.
On the same count and under the same terms, in the case of `C[C@@H](C(=O)Nc1ccc(OCC2CC2)nn1)N1CCC(F)(F)[C@@H](c2ccc(=O)n(CC(F)(F)F)c2)C1` [Example 1, (S)—N-(6-(cyclopropylmethoxy)pyridazin-3-yl)-2-((S)-4,4-difluoro-3-(6-oxo-1-(2,2,2-trifluoroethyl)-1,6-dihydropyridin-3-yl)piperidin-1-yl)propanamide] it was at most 10 nM; in that of `C[C@@H](C(=O)Nc1ccc(OCc2ncco2)cn1)N1CCC(F)(F)[C@@H](c2ccc(=O)[nH]c2)C1` [Example 38, (S)-2-((S)-4,4-difluoro-3-(6-oxo-1,6-dihydropyridin-3-yl)piperidin-1-yl)-N-(5-(oxazol-2-ylmethoxy)pyridin-2-yl)propanamide], 100 to 3160 nM; in that of `C[C@@H](C(=O)Nc1ccc(Oc2ccc(F)c(F)c2)cn1)N1CCC(F)(F)[C@@H](c2ccc(=O)[nH]c2)C1` [Example 268, (S)-2-((S)-4,4-difluoro-3-(6-oxo-1,6-dihydropyridin-3-yl)piperidin-1-yl)-N-(5-(3,4-difluorophenoxy)pyridin-2-yl)propanamide], at most 10 nM.
On the same count and under the same terms, in the case of `C[C@@H](C(=O)Nc1ccc(Oc2ccc(F)cn2)cn1)N1CCC(F)(F)[C@@H](c2cc[n+]([O-])cc2)C1` [Example 115] it was 10 to 100 nM; in that of `CC(C(=O)Nc1ccc(OC2CC3(CCC3)C2)nn1)N1CCC(F)(F)[C@@H](c2ccc(=O)[nH]c2)C1` (stereo partly drawn) [Example 93, 2-((S)-4,4-difluoro-3-(6-oxo-1,6-dihydropyridin-3-yl)piperidin-1-yl)-N-(6-(spiro[3.3]heptan-2-yloxy)pyridazin-3-yl)propanamide], 100 to 3160 nM.
Consider `C[C@@H]1C[C@@H](c2ccc(=O)[nH]c2)CN([C@@H](C)C(=O)Nc2ccc(Cl)cn2)C1` [Example 173], for which the IC50 lay in the range of 3160 to 31600 nM.
On the same count and under the same terms, the value for `C[C@@H](C(=O)Nc1cnc(Oc2ccccc2)cn1)N1CCC(F)(F)[C@@H](c2c[nH]c(=O)c(CN)c2)C1` [Example 207, (S)-2-((S)-3-(5-(aminomethyl)-6-oxo-1,6-dihydropyridin-3-yl)-4,4-difluoropiperidin-1-yl)-N-(5-phenoxypyrazin-2-yl)propanamide] was 10 to 100 nM; that for `C[C@@H](C(=O)Nc1ccc(Cc2ccncc2)cn1)N1CCC(F)(F)[C@@H](c2ccc(=O)[nH]c2)C1` [Example 13, (S)-2-((S)-4,4-difluoro-3-(6-oxo-1,6-dihydropyridin-3-yl)piperidin-1-yl)-N-(5-(pyridin-4-ylmethyl)pyridin-2-yl)propanamide] was 10 to 100 nM.
The same measure, in the same setting: the value for `C[C@@H](C(=O)Nc1ccc(C2CC2)cn1)N1CCC(F)(F)[C@@H](c2c[nH]c(=O)cn2)C1` [Example 137, (S)-N-(5-cyclopropylpyridin-2-yl)-2-((R)-4,4-difluoro-3-(5-oxo-4,5-dihydropyrazin-2-yl)piperidin-1-yl)propanamide] was 100 to 3160 nM.
`C[C@@H](C(=O)Nc1ccc(OCC2CC2)cn1)N1CCC(F)(F)[C@@](C)(c2ccc(=O)[nH]c2)C1` [Example 163, (S)—N-(5-(cyclopropylmethoxy)pyridin-2-yl)-2-((S)-4,4-difluoro-3-methyl-3-(6-oxo-1,6-dihydropyridin-3-yl)piperidin-1-yl)propanamide]: the IC50 is 100 to 3160 nM.
Still for that read-out and setting: the value for `CC(C(=O)Nc1ccc(Oc2ccc(F)cc2)cn1)N1CCC(F)(F)C(c2c[nH]c(=O)c(CN3CCOCC3)c2)C1` (stereo not shown) [Example 226, 2-(4,4-difluoro-3-(5-(morpholinomethyl)-6-oxo-1,6-dihydropyridin-3-yl)piperidin-1-yl)-N-(5-(4-fluorophenoxy)pyridin-2-yl)propanamide] was 10 to 100 nM; that for `C[C@@H](C(=O)Nc1ccc(OCC2CC2)cn1)N1CCC(F)(F)[C@@H](c2c[nH]c(=O)c(C(C)(C)O)c2)C1` [Example 152, (S)—N-(5-(cyclopropylmethoxy)pyridin-2-yl)-2-((S)-4,4-difluoro-3-(5-(2-hydroxypropan-2-yl)-6-oxo-1,6-dihydropyridin-3-yl)piperidin-1-yl)propanamide] was 10 to 100 nM.
Regarding `CC(=O)NCc1cc([C@H]2CN([C@@H](C)C(=O)Nc3ccc(Oc4ccc(F)cc4)cn3)CCC2(F)F)c[nH]c1=O` (single isomer, unassigned) [Example 245], the 50% inhibitory concentration (IC50) was at most 10 nM.
The term pIC50 denotes −log10 of the IC50, conventionally taken in molar units. Low values mean a large IC50, high ones a small IC50. Consider `C[C@@H](C(=O)Nc1cnc(Oc2ccc(F)cc2F)cn1)N1CCC(F)(F)[C@@H](c2cc[n+]([O-])cc2)C1` [Example 132, 4-((S)-1-((S)-1-((5-(2,4-difluorophenoxy)pyrazin-2-yl)amino)-1-oxopropan-2-yl)-4,4-difluoropiperidin-3-yl)pyridine 1-oxide], for which the IC50 is at most 10 nM. Under “[…], agonist Cortistatin-14 at 4×EC50, 30 min incubation at 37° C., mean of a minimum of 2 experiments”, this compound registered a negative logarithm of the IC50 (pIC50) of 8.6.
As for `C[C@@H](C(=O)Nc1ccc(OCC2CC2)cn1)N1CCC[C@@](O)(c2ccc(=O)[nH]c2)C1` (single isomer, unassigned) [Example 171], the IC50 lay within 3160 to 31600 nM.
`C[C@@H](C(=O)Nc1ccc(F)cn1)N1CCC(F)(F)[C@@H](c2ccc(=O)[nH]n2)C1` [Example 148, (S)-2-((R)-4,4-difluoro-3-(6-oxo-1,6-dihydropyridazin-3-yl)piperidin-1-yl)-N-(5-fluoropyridin-2-yl)propanamide] displayed a concentration for half-maximal inhibition (IC50) of 100 to 3160 nM.
Turning to `C[C@@H](C(=O)Nc1ccc(Oc2ccc(F)cc2)cn1)N1CCC(F)(F)[C@@H](c2ccc(=O)[nH]c2)C1` [Example 5, (S)-2-((S)-4,4-difluoro-3-(6-oxo-1,6-dihydropyridin-3-yl)piperidin-1-yl)-N-(5-(4-fluorophenoxy)pyridin-2-yl)propanamide], the IC50 was at most 10 nM.
On the same count and under the same terms, the value for `CC(C(=O)Nc1cc2cnn(CC3CC3)c2cn1)N1CCC(F)(F)[C@@H](c2ccc(=O)[nH]c2)C1` (stereo partly drawn) [Example 40, N-(1-(cyclopropyl-methyl)-1H-pyrazolo[3,4-c]pyridin-5-yl)-2-((S)-4,4-difluoro-3-(6-oxo-1,6-dihydropyridin-3-yl)piperidin-1-yl)propanamide] was 100 to 3160 nM.
Same read-out and setting: in the case of `C[C@@H](C(=O)Nc1cc2ccccc2cn1)N1CCC(F)(F)[C@@H](c2ccc(=O)[nH]c2)C1` [Example 34, (S)-2-((S)-4,4-difluoro-3-(6-oxo-1,6-dihydropyridin-3-yl)piperidin-1-yl)-N-(isoquinolin-3-yl)propanamide] it was 100 to 3160 nM.
Regarding `C[C@@H](C(=O)Nc1ncc(OCC2CC2)cn1)N1CCC(F)(F)[C@@H](c2ccc(=O)[nH]c2)C1` [Example 35, (S)-N-(5-(cyclopropyl-methoxy)pyrimidin-2-yl)-2-((S)-4,4-difluoro-3-(6-oxo-1,6-dihydropyridin-3-yl)piperidin-1-yl)propanamide], the half-inhibitory concentration (IC50) was in the range of 100 to 3160 nM.
On the same count and under the same terms, in the case of `C[C@@H](C(=O)Nc1ccc(Oc2ccc(F)cc2F)cn1)N1CCC(F)(F)[C@@H](c2c[nH]c(=O)c([C@@H](N)C(F)(F)F)c2)C1` (single isomer, unassigned) [Example 236] it was at most 10 nM.
On the same count and under the same terms, the value for `C[C@@H](C(=O)Nc1ccc(F)cn1)N1CCC(F)(F)[C@@H](c2c[nH]c(=O)cn2)C1` [Example 135, (S)-2-((R)-4,4-difluoro-3-(5-oxo-4,5-dihydropyrazin-2-yl)piperidin-1-yl)-N-(5-fluoropyridin-2-yl)propanamide] was 10 to 100 nM; that for `CC(C(=O)Nc1ccc(Cc2nccs2)cn1)N1CCC(F)(F)[C@@H](c2ccc(=O)[nH]c2)C1` (stereo partly drawn) [Example 52, 2-((S)-4,4-difluoro-3-(6-oxo-1,6-dihydropyridin-3-yl)piperidin-1-yl)-N-(5-(thiazol-2-ylmethyl)pyridin-2-yl)propanamide] was 100 to 3160 nM.
Compound `CC(C(=O)Nc1ccc(F)cn1)N1CCC(F)(F)C(c2ccc(=O)n(Cc3ccncc3)c2)C1` (stereo not shown) [Example 197, 2-(4,4-difluoro-3-(6-oxo-1-(pyridin-4-ylmethyl)-1,6-dihydropyridin-3-yl)piperidin-1-yl)-N-(5-fluoropyridin-2-yl)propanamide] yielded an IC50 of 10 to 100 nM.
`COc1cc(F)ccc1Oc1ccc(NC(=O)[C@H](C)N2CCC(F)(F)[C@@H](c3ccc(=O)[nH]c3)C2)nc1` [Example 269] showed an IC50 of at most 10 nM.

Source of the values: US11976057B2, “MrgX2 antagonists” (GlaxoSmithKline Intellectual Property Development Limited, priority 2020, dated 2024).
